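These data come from cells grown in 96-well plates and exposed to compound for 48 hours at five concentrations. Abbreviation: GI50, concentration required for 50% inhibition of growth.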 Calls of active or inactive are those of the source. Rule as the data show it: active = GI50 up to about 1.1 µM and inactive = higher.
Key:
Experiment in all cases: NCI tumour cell line growth inhibition, 48 h
SNB-19 = test system: SNB-19
SK-MEL-5 = test system: SK-MEL-5
KM12 = test system: KM12
OVCAR-8 = test system: OVCAR-8
OVCAR-5 = test system: OVCAR-5
SNB-78 = test system: SNB-78
EKVX = test system: EKVX
SF-295 = test system: SF-295
CAKI-1 = test system: CAKI-1
RPMI-8226 = test system: RPMI-8226
DMS-114 = test system: DMS-114
UACC-62 = test system: UACC-62
IGROV-1 = test system: IGROV-1
UACC-257 = test system: UACC-257
SK-MEL-28 = test system: SK-MEL-28
A549 = test system: A549
MOLT-4 = test system: MOLT-4
SK-MEL-2 = test system: SK-MEL-2

SMILES | GI50 (SNB-19) | GI50 (SK-MEL-5) | GI50 (KM12) | GI50 (OVCAR-8) | GI50 (OVCAR-5) | GI50 (SNB-78) | GI50 (EKVX) | GI50 (SF-295) | GI50 (CAKI-1) | GI50 (RPMI-8226) | GI50 (DMS-114) | GI50 (UACC-62) | GI50 (IGROV-1) | GI50 (UACC-257) | GI50 (SK-MEL-28) | GI50 (A549) | GI50 (MOLT-4) | GI50 (SK-MEL-2)
COc1ccc(-c2c(N)[n+]([O-])c3cc(C)c(C)cc3[n+]2[O-])cc1OC | 91.2 µM (inactive) | 30.9 µM (inactive) | > 100 µM (inactive) | > 100 µM (inactive) | > 100 µM (inactive) | > 100 µM (inactive) | > 100 µM (inactive) | > 100 µM (inactive) | 37.8 µM (inactive) | > 100 µM (inactive) | 25.5 µM (inactive) | 41.4 µM (inactive) | > 100 µM (inactive) | 41.5 µM (inactive) | 38.5 µM (inactive) | > 100 µM (inactive) | 78.3 µM (inactive) | 66.8 µM (inactive)
O=c1/c(=C/c2ccccc2[N+](=O)[O-])sc2nnc(-c3cccnc3)n12 | 17.7 µM (inactive) | > 100 µM (inactive) | > 100 µM (inactive) | > 100 µM (inactive) | > 100 µM (inactive) | > 100 µM (inactive) | > 100 µM (inactive) | > 100 µM (inactive) | 1.43 µM (inactive) | > 100 µM (inactive) | > 100 µM (inactive) | > 100 µM (inactive) | > 100 µM (inactive) | > 100 µM (inactive) | > 100 µM (inactive) | > 100 µM (inactive) | 63.5 µM (inactive) | > 100 µM (inactive)
CCOC(=O)NC(=O)c1cn(C(CC)COC(=O)NCCCCCCNC(=O)OCC(CC)n2cc(C(=O)NC(=O)OCC)c(=O)[nH]c2=O)c(=O)[nH]c1=O (stereo not given) | > 100 µM (inactive) | > 100 µM (inactive) | > 100 µM (inactive) | > 100 µM (inactive) |  | > 100 µM (inactive) | > 100 µM (inactive) | > 100 µM (inactive) | > 100 µM (inactive) | > 100 µM (inactive) | > 100 µM (inactive) | > 100 µM (inactive) | > 100 µM (inactive) | > 100 µM (inactive) | > 100 µM (inactive) | > 100 µM (inactive) | > 100 µM (inactive) | > 100 µM (inactive)
O=c1n(-c2ccccc2)c(=O)n2n1C1C=CC2C2C(C1)C2(Cl)Cl (stereo not given) | > 100 µM (inactive) | > 100 µM (inactive) | > 100 µM (inactive) | > 100 µM (inactive) | > 100 µM (inactive) | > 100 µM (inactive) | > 100 µM (inactive) | > 100 µM (inactive) | > 100 µM (inactive) |  | > 100 µM (inactive) | > 100 µM (inactive) | > 100 µM (inactive) | > 100 µM (inactive) |  | > 100 µM (inactive) | > 100 µM (inactive) | > 100 µM (inactive)
[O-][n+]1c(-c2ccccc2)oc2ccccc21 | 24.7 µM (inactive) | 2.25 µM (inactive) | 17.3 µM (inactive) | 15.9 µM (inactive) | 33.8 µM (inactive) | 41.4 µM (inactive) | 26.7 µM (inactive) | 14 µM (inactive) | > 41.1 µM (inactive) | > 22.6 µM (inactive) | 3.48 µM (inactive) | 8.69 µM (inactive) | 34.1 µM (inactive) | 7.71 µM (inactive) | 18.1 µM (inactive) | 4.6 µM (inactive) | > 69.7 µM (inactive) | 17.7 µM (inactive)
COc1ccc2ccc3c(c2c1)CN1CCc2cc(OC)c(OC)cc2C1C3 (stereo not given) | > 100 µM (inactive) | > 100 µM (inactive) | > 100 µM (inactive) | > 100 µM (inactive) | > 100 µM (inactive) | > 100 µM (inactive) | > 100 µM (inactive) | > 100 µM (inactive) | > 100 µM (inactive) | > 100 µM (inactive) | > 100 µM (inactive) | > 100 µM (inactive) | > 100 µM (inactive) | > 100 µM (inactive) | > 100 µM (inactive) |  | > 100 µM (inactive) | > 100 µM (inactive)
CCN(CC)CCNc1ccc2ncn3c4cc(O)ccc4c(=O)c1c23 | 3.9 µM (inactive) | 3.66 µM (inactive) | 4.61 µM (inactive) | 1.15 µM (inactive) | 11 µM (inactive) | 5.35 µM (inactive) | 8.77 µM (inactive) | 2.5 µM (inactive) | 3.05 µM (inactive) | 2.17 µM (inactive) | 4.29 µM (inactive) | 5.65 µM (inactive) | 4.25 µM (inactive) | 5.37 µM (inactive) | 4.73 µM (inactive) | 3.31 µM (inactive) | 0.668 µM (active) | 8.59 µM (inactive)
CC(C)(C)c1cc(C(O)(C(F)(F)F)C(F)(F)F)c2c(c1)C(C(F)(F)F)(C(F)(F)F)OC(C)(C(C)(C)C)N2 (stereo not given) | 5.41 µM (inactive) | 2.01 µM (inactive) | 3.94 µM (inactive) | 4.9 µM (inactive) | 7.13 µM (inactive) | 5.87 µM (inactive) | 3.94 µM (inactive) | 4.73 µM (inactive) | 3.04 µM (inactive) | 2.57 µM (inactive) | 2.74 µM (inactive) | 3.58 µM (inactive) | 4.78 µM (inactive) | 5.19 µM (inactive) | 8.28 µM (inactive) | 3.59 µM (inactive) | 2.54 µM (inactive) | 4.72 µM (inactive)
